Results: patent publication US20120134985A1, “METHODS FOR MODULATING METABOLIC AND CIRCADIAN RHYTHMS” (The Salk Institute for Biological Studies, priority 2009, published 2012)

Columns and labels:
[1] = system: AMPK; assay: In vitro phosphorylation assay of purified Flag-mCRY1 by purified AMPK; format: biochemical; settings: 300 μM AMP; 30 minutes; 32P-ATP
Description: Flag-tagged mCRY1 purified from AD293 cells was incubated for 30 minutes with #^32P-ATP in the absence or presence of AMP kinase and 300 μM AMP as indicated. Phosphorylation of mCRY1 was detected by autoradiography; total mCRY1 levels were determined by immunoblot for the Flag epitope.
In vitro Phosphorylation Assay—Flag-mCRY1 was purified from transfected AD293 cells and combined with ^32P-ATP and purified AMPK (from Upstate Biotechnology) in the presence or absence of 300 uM AMP for 30 minutes at room temperature. The reaction mixture was separated by SDS-PAGE and transferred to nitrocellulose. Following radioactive visualization by phosphoimager, the nitrocellulose was immunoblotted for the Flag tag.

[2] = system: AMPK; settings: cited from earlier work
[3] = system: CRY1; assay: Flag-CRY1 degradation/stability in AMPK+/+ and AMPK-/- mouse embryonic fibroblasts (immunoprecipitation, immunoblot, cycloheximide time course); format: cell-based
Text: (§1) (A) Sequence alignments showing evolutionary conservation of the regions surrounding S71 of mCRY1 in cryptochrome circadian transcriptional repressors (species names in red font) and blue light photoreceptors (species names in blue font). The highlighted numbers above the sequences indicate amino acid preferences at those positions relative to the target serine for phosphorylation by AMP kinase: red indicates a preference for acidic residues (K/R) and green for hydrophobic residues (L/I/V/F). (B) Top: sequence alignment of the phospho-peptides against which antibodies to mCRY1-pS71 and mACC1-pS79 were raised. Bottom: Both anti-mCRY1-pS71 and anti-ACC1-pS79 antibodies recognize WT but not S71A Flag-mCRY1 immunoprecipitated from AD293 cells. (C) anti-mCRY1-p571 was used to detect phosphorylation of Ser71 in Flag-CRY1 immunoprecipitated from AD293 cells transiently expressing wild type CRY1 (WT) or CRY1S71A (S71A) in the absence or presence of activated alleles of AMPKα1 (CAα1) or AMPKα2 (CAα2). Transiently expressed myc-CAα1 and myc-CAα2 were immunostained with polyclonal rabbit antibodies raised against the myc epitope tags and anti-rabbit AF488 (green). Nuclei were counterstained with DAPI (blue). (D) HeLa cells transiently expressing Flag-CRY1 with wild type (WT) or kinase dead (KD) LKB1 were treated with vehicle (−) or 2 mM AICAR (+) for 2 hours. (E) AD293 cells transiently expressing the indicated alleles of Flag-mCRY1 were treated with media containing 25 mM or 0.5 mM glucose. (F) Paired wild type (AMPK+/+) and ampkα1^−/−;ampkα2^−/− (AMPK−/−) mouse embryonic fibroblasts stably expressing Flag-tagged wild type CRY1 (WT) or CRY1S71A/S280A (AA) were treated with vehicle (−) or 2 mM AICAR (+) for 2 hours. (G) MEFs described in (F) were treated with 100 μg/ml cycloheximide (CHX) for the indicated times. CRY1 was detected by immunoprecipitation and immunoblotting for the Flag epitope in (D-G). […]

[4] = system: reverba and dbp expression; assay: Quantitative PCR of circadian transcripts in serum-stimulated mouse embryonic fibroblasts; format: cell-based; settings: 25 mM glucose supplemented with 1 mM AICAR
Description: (A) Unsynchronized paired wild type (AMPK^+/+) or ampkα1^−/−; ampkα2^−/− (AMPK−/−) mouse embryonic fibroblasts were stimulated by 2 hour exposure to 50% horse serum followed by transfer to media containing 25 mM glucose, 0.5 mM glucose or 25 mM glucose supplemented with 1 mM AICAR. Quantitative PCR analysis was performed using cDNA samples collected at the indicated times following stimulation. Data represent the mean of two independent experiments, each analyzed in triplicate. (B) Fibroblasts stably expressing Bmall-luciferase were cultured in media containing the indicated amounts of glucose with or without 2 mM AICAR. Typical results of continuous monitoring of luciferase activity are shown. (C and D) Quantitation of the circadian period (C) and amplitude (D) of Bmall-driven luciferase activity from experiments performed as described in (B). Data in (C) and (D) represent the mean±standard deviation for four samples per condition. […]
FIG. 10A-D show disruption of AMPK alters circadian rhythms in MEFs. […] Quantitative PCR analysis was performed using cDNA samples prepared from lysates collected at the indicated times following stimulation. Data represent the mean±standard deviation of two or three independent experiments each analyzed in triplicate. […]

[5] = system: Fas and Por expression in liver; assay: Liver gene expression (quantitative PCR) in wildtype and Cry1-/-;Cry2-/- mice injected with AICAR; format: in vivo, mouse
Description: Wildtype (WT) or Cry1^−/−;Cry2^−/− (CRY^−/−) mice were injected with either saline (black bars) or 500 mg AICAR per kg of bodyweight (red bars) at 6:00 pm. cDNA was prepared from livers collected four hours later at 10:00 pm and gene expression was analyzed by quantitative PCR using Sybr GreenER chemistry. […] Data represent the mean±s.e.m. for 3-5 mice per condition.
Gene Expression—RNA was extracted from livers or cultured fibroblasts with Trizol or using the Qiagen RNeasy purification system. cDNA was prepared using the SuperscriptII reverse transcriptase (Invitrogen) and analyzed for gene expression using quantitative real-time PCR with either SYBR green (Invitrogen) or TaqMan (Applied Biosystems) chemistry. Primer sequences are available upon request.
Mice—LKB1^fl/fl mice were a gift from Dr. Ronald De Pinho, Cry1^−/−;Cry2^−/− mice were a gift from Dr. Aziz Sancar. Adenovirus expressing Cre recombinase was from the University of Iowa Transgenic Core facility. All animal care and treatments were in accordance with the Salk Institute guidelines for the care and use of animals.
Furthermore, the effect on metabolic physiology of genetic disruption of both Cry1 and Cry2 in mice is examined.

[6] = system: mCRY1; assay: Levels of exogenously expressed Flag-mCRY1 in HeLa cells expressing WT or KD LKB1 (immunoblot); format: cell-based, mouse; settings: HeLa cells with wild type (WT) LKB1; 2 mM AICAR for 2 hours
Text: as §1, with “(D) HeLa cells transiently expressing Flag-CRY1 with wild type (WT) or kinase dead (KD) LKB1 were treated with vehicle (−) or 2 mM AICAR (+) for 2 hours. (E) AD293 cells transiently expressing the indicated alleles of Flag-mCRY1 were treated with media containing 25 mM or 0.5 mM glucose. (F) Paired wild type (AMPK+/+) and ampkα1^−/−;ampkα2^−/− (AMPK−/−) mouse embryonic fibroblasts stably expressing Flag-tagged wild type CRY1 (WT) or CRY1S71A/S280A (AA) were treated with vehicle (−) or 2 mM AICAR (+) for 2 hours. (G) MEFs described in (F) were treated with 100 μg/ml cycloheximide (CHX) for the indicated times.” left out

[7] = system: Bmall-luciferase; assay: Real time bioluminescence monitoring of Bmall-luciferase circadian rhythms; format: cell-based, human; settings: high glucose medium supplemented with 2 mM AICAR
Description: (A) Unsynchronized paired wild type (AMPK^+/+) or ampkα1^−/−; ampkα2^−/− (AMPK−/−) mouse embryonic fibroblasts were stimulated by 2 hour exposure to 50% horse serum followed by transfer to media containing 25 mM glucose, 0.5 mM glucose or 25 mM glucose supplemented with 1 mM AICAR. Quantitative PCR analysis was performed using cDNA samples collected at the indicated times following stimulation. Data represent the mean of two independent experiments, each analyzed in triplicate. (B) Fibroblasts stably expressing Bmall-luciferase were cultured in media containing the indicated amounts of glucose with or without 2 mM AICAR. Typical results of continuous monitoring of luciferase activity are shown. (C and D) Quantitation of the circadian period (C) and amplitude (D) of Bmall-driven luciferase activity from experiments performed as described in (B). Data in (C) and (D) represent the mean±standard deviation for four samples per condition. ANOVA analysis indicated a significant difference between categories. ** P<0.01 vs. samples cultured in 25 mM glucose in Scheffe's post-hoc analysis.
The Bmall promoter is repressed by REVERBa. […]
Real Time Bioluminescence Monitoring—The human osteosarcoma U2OS reporter cell line stably expressing a Bmall promoter driven luciferase has been described. […] Bioluminescence was continuously recorded by a LumiCycle apparatus from Actimetrics, Inc.

[8] = WT or Cry1-/-;Cry2-/- mice, 500 mg AICAR per kg of bodyweight, livers collected four hours later

In the case of `Nc1ncnc2c1ncn2[C@@H]1O[C@H](COP(=O)(O)O)[C@@H](O)[C@H]1O` [AMP], the “phosphorylation of mCRY1 by purified AMPK” value [1] is reported as “strongly activated”.

In the case of `NC(=O)c1ncn([C@@H]2O[C@H](COP(=O)(O)O)[C@@H](O)[C@H]2O)c1N` [ZMP, 5-amino-4-imidazolecarboxamide ribotide], the AMPK activation ([2]; AMP analog formed in the cell from AICAR) is listed as “has been shown to activate AMPK” and the “specificity as AMPK activator” value ([2]; also acts as an AMP mimic in the regulation of other enzymes) is listed as “not a specific AMPK activator”.

With `NC(=O)c1ncn([C@@H]2O[C@H](CO)[C@@H](O)[C@H]2O)c1N` [AICAR, 5-amino-4-imidazolecarboxamide riboside] the “stability of wild type CRY1” value ([3]; 4-hour time course of cycloheximide treatment in the presence of AICAR) was “reduced stability”, the “effect on WT or AA CRY1” value ([3]; AMPK-/- MEFs (absence of functional AMPK), 2 mM AICAR for 2 hours) was “no effect” and the “degradation of wild type (WT) Flag-CRY1” value ([3]; wild type (AMPK+/+) MEFs, 2 mM AICAR for 2 hours) was “acutely degraded”. For the same compound, the “expression of reverba and dbp” value ([4]; MEFs lacking AMPK (AMPK-/-)) was “neither glucose deprivation nor AICAR treatment affected”, the “amplitude of circadian reverba and dbp expression” value ([4]; wild type fibroblasts) was “mimicked the effects of glucose deprivation” and the “Fas (fatty acid synthase) expression in liver” value [5, 8] was “activated by AICAR regardless of Cry1 and Cry2 genotype”. For the same compound, the “Por (p450 oxidoreductase) expression in liver” value [5, 8] was “AICAR-induced activation requires cryptochromes”, the “gene expression in the livers” value ([5]; wildtype and cryptochrome-deficient mice injected with AICAR) was “cryptochromes are required for AICAR-induced activation of a subset of the genes” and the “levels of exogenously expressed mCRY1” value [6] was “reduction was enhanced”. The “amplitude of Bmall-luciferase expression” value [7] was “decreased the amplitude”.
